Publication PMC6106167, “Small‐Molecule Neuromedin U Receptor 2 Agonists Suppress Food Intake and Decrease Visceral Fat in Animal Models” (Pharmacology Research & Perspectives, 2018)
Like-named read-outs stand apart in the source and are kept apart here.

Assays:
[1] = molecular target: T1, neuromedin U receptor 2 (NMUR2) (Homo sapiens, UniProt Q9GZQ4); experiment: GloSensor cAMP inhibition (Gi mode) in hNMUR2 HEK293 cells; no effect in cells lacking NMUR2; FLIPR calcium EC50 […]; format: cell-based; settings: read-out: Gi/o EC50
T1 construct: human NMUR2 stably expressed in HEK293 cells

[2] = molecular target: T1, neuromedin U receptor 2 (NMUR2); experiment: as above; format: cell-based; settings: read-out: Gi/o EC50; remark: listed apart in the source

T1 sequence (Q9GZQ4 whole entry): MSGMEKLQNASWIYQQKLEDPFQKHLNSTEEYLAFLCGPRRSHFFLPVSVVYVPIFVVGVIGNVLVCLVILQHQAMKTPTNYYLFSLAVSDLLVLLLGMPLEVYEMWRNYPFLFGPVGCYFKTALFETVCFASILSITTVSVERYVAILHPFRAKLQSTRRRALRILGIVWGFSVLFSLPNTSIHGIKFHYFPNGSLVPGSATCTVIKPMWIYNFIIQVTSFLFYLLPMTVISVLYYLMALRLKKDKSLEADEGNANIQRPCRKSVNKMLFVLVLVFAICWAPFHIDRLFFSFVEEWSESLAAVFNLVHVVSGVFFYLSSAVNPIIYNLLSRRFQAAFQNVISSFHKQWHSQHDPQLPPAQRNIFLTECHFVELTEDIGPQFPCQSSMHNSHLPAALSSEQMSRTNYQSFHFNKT

| Structure (SMILES) | EC50 [1] | EC50 [2] |
| --- | --- | --- |
| N=C(N)NCCOC(c1ccccc1)(c1ccccc1)c1ccccc1 [NY0116] | 1.69 nM | – |
| N=C(N)NCCCOC(c1ccccc1)(c1ccccc1)c1ccccc1 [NY0128] | – | 0.71 nM |
